Experimental data: US7235649B2, “Isolated GRP94 ligand binding domain polypeptide and nucleic acid encoding same, and screening methods employing same” (Duke University, priority 2000, dated 2007)

Key:
[1] = molecular target: T1, GRP94 (Sus scrofa, UniProt Q29092); test: Fluorophore binding reactions with native or heat shocked GRP94 (fluorescence emission); settings: for fluorophore binding to heat shocked GRP94: 0.5 μM GRP94 heat shocked 15 minutes at 50° C., 5 μM probe; for fluorophore binding to native GRP94: 0.5 μM native GRP94, 5 μM probe, 30 min at 37° C.
T1 sequence (Q29092 22-804): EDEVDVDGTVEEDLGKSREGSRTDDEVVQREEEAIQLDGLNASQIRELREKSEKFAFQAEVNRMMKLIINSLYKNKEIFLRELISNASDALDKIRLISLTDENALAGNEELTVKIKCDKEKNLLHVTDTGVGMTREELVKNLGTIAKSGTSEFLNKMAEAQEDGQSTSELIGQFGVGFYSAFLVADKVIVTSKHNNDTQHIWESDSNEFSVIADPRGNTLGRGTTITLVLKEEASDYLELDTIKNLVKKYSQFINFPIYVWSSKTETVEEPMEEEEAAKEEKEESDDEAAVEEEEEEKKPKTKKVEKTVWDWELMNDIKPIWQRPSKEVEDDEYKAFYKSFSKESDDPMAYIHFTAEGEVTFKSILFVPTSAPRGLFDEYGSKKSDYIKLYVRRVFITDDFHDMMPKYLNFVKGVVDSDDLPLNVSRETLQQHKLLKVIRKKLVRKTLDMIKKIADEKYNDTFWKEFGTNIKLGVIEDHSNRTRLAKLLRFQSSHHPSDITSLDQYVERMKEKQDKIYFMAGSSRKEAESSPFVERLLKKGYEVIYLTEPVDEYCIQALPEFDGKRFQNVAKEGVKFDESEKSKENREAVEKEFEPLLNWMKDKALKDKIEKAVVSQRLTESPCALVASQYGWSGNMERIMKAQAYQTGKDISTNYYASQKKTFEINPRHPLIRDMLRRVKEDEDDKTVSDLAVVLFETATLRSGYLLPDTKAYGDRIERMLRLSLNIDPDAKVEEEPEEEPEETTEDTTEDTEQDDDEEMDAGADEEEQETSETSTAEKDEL

[2] = molecular target: T1, GRP94; test: [3H]-NECA competitive displacement assay; type: binding, porcine; set-up: GRP94 was purified from porcine pancreas rough microsomes; from tissue; host or cells: porcine pancreas rough microsomes; settings: for nucleoside base specificity: binding by [3H]-NECA competitive displacement: competitors all at 50 μM; for nucleoside base specificity: binding by [3H]-NECA competitive displacement / competition with [3H]-NECA for binding to GRP94 (adenosine ligands): 20 nM [3H]-NECA; for competition with [3H]-NECA for binding to GRP94 (adenosine ligands): nominal (80 μM) Mg2+; for effect of excess Mg2+ on binding to GRP94: 10 mM Mg(OAc)2 vs nominal endogenous magnesium
[3] = molecular target: casein kinase II (Homo sapiens, UniProt P68400); test: Casein kinase II assay with casein; type: biochemical; settings: 180 μM NECA or 180 μM radicicol in 3.6% DMSO, 5 μg/ml heparin, 5 mM GTP; 4 μM casein
Chain of casein kinase II (P68400 whole entry): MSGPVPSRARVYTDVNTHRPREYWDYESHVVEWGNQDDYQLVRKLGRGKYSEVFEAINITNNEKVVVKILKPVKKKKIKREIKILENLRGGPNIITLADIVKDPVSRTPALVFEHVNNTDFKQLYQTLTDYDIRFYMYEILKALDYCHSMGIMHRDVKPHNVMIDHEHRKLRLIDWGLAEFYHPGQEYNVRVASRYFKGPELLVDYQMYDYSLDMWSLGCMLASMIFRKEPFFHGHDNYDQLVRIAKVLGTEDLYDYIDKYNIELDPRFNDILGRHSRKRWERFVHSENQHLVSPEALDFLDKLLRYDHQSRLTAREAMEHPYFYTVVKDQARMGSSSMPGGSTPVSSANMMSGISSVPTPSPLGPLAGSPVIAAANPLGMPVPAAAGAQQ
Chain of casein kinase II (P67870 whole entry partner): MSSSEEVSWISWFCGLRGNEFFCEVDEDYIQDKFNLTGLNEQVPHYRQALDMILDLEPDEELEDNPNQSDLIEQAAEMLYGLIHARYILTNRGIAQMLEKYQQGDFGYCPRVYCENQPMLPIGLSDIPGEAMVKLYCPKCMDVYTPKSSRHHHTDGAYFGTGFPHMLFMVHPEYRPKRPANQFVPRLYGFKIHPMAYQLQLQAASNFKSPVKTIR
Description: (§1) Phosphorylation Assays. […] For the casein kinase assay, 1 unit of casein kinase 11 was incubated as described above, with the addition of 4 μM casein. […] The 25 μl reaction mixtures were incubated at 37° C. for 1 hour and quenched by addition of 10% trichloroacetic acid. Samples were analyzed by 10% SDS-PAGE gels and the phosphorylated species were quantitated using a Fuji MACBAS1000™ phosphorimaging system (Fuji Medical Systems of Stamford, Conn.).

[4] = molecular target: T1, GRP94; test: GRP94 autophosphorylation assay; type: biochemical, porcine; set-up: GRP94 was purified from porcine pancreas rough microsomes; from tissue; host or cells: porcine pancreas rough microsomes; settings: 180 μM NECA or 180 μM radicicol in 3.6% DMSO, 5 μg/ml heparin, 5 mM GTP; 1 hour 37° C.
Description: as §1

[5] = molecular target: T1, GRP94; type: biochemical, porcine; set-up: GRP94 was purified from porcine pancreas rough microsomes; from tissue; host or cells: porcine pancreas rough microsomes; settings: bis-ANS treated GRP94, ten-fold molar excess [125I]-VSV8, 30 min at 37° C.
[6] = molecular target: T1, GRP94; test: Identification of the bis-ANS binding site by photo-crosslinking, trypsin digestion and Edman sequencing; set-up: GRP94 was purified from porcine pancreas rough microsomes; from tissue; host or cells: porcine pancreas rough microsomes; species or system porcine; settings: 50 μM bis-ANS photo-crosslinked 15 minutes on ice
[7] = molecular target: T1, GRP94; test: Blue native polyacrylamide gel electrophoresis (oligomeric state); type: biochemical, porcine; set-up: GRP94 was purified from porcine pancreas rough microsomes; from tissue; host or cells: porcine pancreas rough microsomes; settings: ten-fold molar excess of bis-ANS
Description: Native Blue Electrophoresis. The oligomeric state of GRP94 was assayed by blue native polyacrylamide gel electrophoresis (BN-PAGE) as described by Schagger et al. (1994) Anal Biochem 217:220–230. GRP94 was either heat shocked or exposed to a 10-fold molar excess of bis-ANS for the indicated times. Samples were then dissolved in 15% glycerol and loaded onto 5–18% gradient gels with 0.02% Coomassie Brilliant Blue in the cathode buffer. Gels were run at 4° C., stained with Coomassie Blue, de-stained and dried.
When purified from tissue, GRP94 exists as a homodimer, as described by Wearsch & Nicchitta (1996a) Prot Express Purif 7(1):114–21; Nemoto et al. (1996) J Biochem 120:249–256. Following heat shock however, GRP94 forms higher molecular weight complexes, as described by Wearsch et al. (1998) Biochemistry 37:5709–5719. To further characterize the effects of bis-ANS on GRP94 structure, the oligomerization states of native, heat shocked and bis-ANS treated GRP94 were assayed by the blue native polyacrylamide gel electrophoresis (BN-PAGE) technique described by Schagger et al. (1994). In these experiments, GRP94 was incubated with bis-ANS or briefly heat shocked and subsequently incubated at 37° C. The samples were then analyzed by BN-PAGE. […] However, exposure to heat shock causes a relatively rapid formation of tetramers, hexamers, and octamers (FIG. 4, lanes 2–4).

[8] = tested on: HSP90; test: Conformational analysis by tryptic proteolysis and SDS-PAGE; type: biochemical; settings: bis-ANS treatment
[9] = molecular target: T1, GRP94; test: as above; type: biochemical, porcine; set-up: GRP94 was purified from porcine pancreas rough microsomes; from tissue; host or cells: porcine pancreas rough microsomes; settings: 5 μM GRP94, 50 μM bis-ANS one hour at 37° C., 0.1% trypsin
[10] = molecular target: T1, GRP94; test: Citrate synthase thermal aggregation assay (GRP94 chaperone activity); type: biochemical, porcine; set-up: GRP94 was purified from porcine pancreas rough microsomes; from tissue; host or cells: porcine pancreas rough microsomes; settings: 1 μM GRP94 preincubated two hours with 10 μM bis-ANS, 0.15 μM citrate synthase, 43° C.
Description: Citrate Synthase Aggregation Assays. The effects of GRP94 on the thermal aggregation of citrate synthase were assayed by the methods described by Buchner et al. (1998) Methods Enzymol 290:323–338. Samples containing no protein, or GRP94 (1 μM), were incubated in 40 mM HEPES pH 7.5 for two hours at 37° C. with either 0.2% DMF or 10 μM bis-ANS. The samples were then warmed to 43° C. for five minutes and placed in a spectrofluorometer thermostatted at 43° C. Citrate synthase was then added to 0.15 μM final concentration and the thermal aggregation of the enzyme followed by light scattering. Excitation and emission wavelengths were both 500 nm with 2 nm slit width. The time course of citrate synthase aggregation was followed for 1000 seconds.
To determine if the bis-ANS-dependent conformational changes in GRP94 were of functional significance, the molecular chaperone activities of native, heat shocked and bis-ANS treated GRP94 were evaluated in a thermal aggregation assay, as described by Jakob et al. (1995) J Biol Chem 270:7288–7294 and Buchner et al. (1998) Methods Enzymol 290:323–338. […] Following experimental treatment of the GRP94, reactions were equilibrated at 43° C., citrate synthase then added and aggregation, as represented by light scattering, was measured.

[11] = molecular target: T1, GRP94; test: Far-UV circular dichroism; type: biochemical, porcine; set-up: GRP94 was purified from porcine pancreas rough microsomes; from tissue; host or cells: porcine pancreas rough microsomes; settings: 1 μM GRP94, 10 μM bis-ANS 2 hours
Description: Circular Dichroism Measurements. Far-UV CD spectrometry was performed on an AVIV Associates 62DS™ circular dichroism spectrometer (AVIV Associates of Lakewood, N.J.). Samples were analyzed in a 1 mm path length quartz cuvette at 37° C. GRP94 samples (1 μM) were prepared in standard phosphate buffered saline solution as buffer A produced unacceptable dynode voltages in the relevant region of the spectrum. GRP94 was incubated with 10 μM bis-ANS for 2 hours at 37° C. prior to obtaining spectra. Spectra were recorded from 300 to 195 nm. The α-helical content of GRP94 was calculated from the molar ellipticity at 222 nm. See Myers & Jakoby (1975) J Biol Chem 250:3785–3789.
To gain further insight into the nature of the bis-ANS dependent conformational change, GRP94 was subjected to heat shocked or treated with bis-ANS and far-UV CD spectra obtained (FIG. 5).

[12] = molecular target: N-terminal nucleotide binding pocket of Hsp90 (Saccharomyces cerevisiae, UniProt P02829); settings: cited from earlier work
Chain of N-terminal nucleotide binding pocket of Hsp90 (P02829 whole entry): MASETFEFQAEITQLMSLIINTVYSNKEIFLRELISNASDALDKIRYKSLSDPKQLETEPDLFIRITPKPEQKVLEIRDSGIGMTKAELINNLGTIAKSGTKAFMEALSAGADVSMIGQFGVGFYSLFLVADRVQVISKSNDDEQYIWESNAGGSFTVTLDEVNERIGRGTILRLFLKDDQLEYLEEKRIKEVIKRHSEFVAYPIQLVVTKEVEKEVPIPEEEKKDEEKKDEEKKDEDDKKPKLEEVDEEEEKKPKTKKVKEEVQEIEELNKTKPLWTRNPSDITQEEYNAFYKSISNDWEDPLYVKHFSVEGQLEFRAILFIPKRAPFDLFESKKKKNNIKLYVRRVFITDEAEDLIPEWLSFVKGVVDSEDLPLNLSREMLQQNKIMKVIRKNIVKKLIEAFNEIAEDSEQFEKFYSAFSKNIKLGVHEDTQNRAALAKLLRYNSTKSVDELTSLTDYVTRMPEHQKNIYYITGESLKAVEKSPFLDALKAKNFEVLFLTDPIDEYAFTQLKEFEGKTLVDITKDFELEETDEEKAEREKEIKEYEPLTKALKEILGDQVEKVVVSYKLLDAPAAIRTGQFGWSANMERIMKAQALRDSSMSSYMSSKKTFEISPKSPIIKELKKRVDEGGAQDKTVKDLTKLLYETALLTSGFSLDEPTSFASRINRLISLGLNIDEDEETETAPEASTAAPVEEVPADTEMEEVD

[13] = molecular target: T1, GRP94; test: Tryptophan fluorescence (ligand-induced conformational change); settings: 50 μM NECA, 50 μM geldanamycin, 2.5 mM ATP or 2.5 mM ADP, 1 hour at 37° C.
Description: Tryptophan Fluorescence. Tryptophan fluorescence measurements were conducted in a FLUOROMAX™ spectrofluorometer (Spex Industries, Inc. of Edison, N.J.) with the slit widths set to 1 nm for both excitation and emission. […] All spectra were corrected by subtraction of buffer or buffer plus ligand samples. […] Samples were then cooled to room temperature, transferred to a quartz cuvette, and the spectra collected.

Compound: O=S(=O)(O)c1cccc2cccc(Nc3ccccc3)c12 [8-ANS, 1,8-anilinonaphthalenesulfonate]
- fluorophore binding to heat shocked GRP94 [1]: binds avidly following heat shock
- fluorophore binding to native GRP94 [1]: weak interactions with native GRP94

Compound: Nc1nc2c(ncn2[C@@H]2O[C@H](COP(=O)(O)OP(=O)(O)OP(=O)(O)O)[C@@H](O)[C@H]2O)c(=O)[nH]1 [GTP]
- nucleoside base specificity: binding by [3H]-NECA competitive displacement [2]: little to no binding
- effect on casein kinase II activity [3]: markedly attenuated
- effect on GRP94 autophosphorylation activity [4]: markedly attenuated

Compound: 4,4′-dianilino-1,1-binaphthyl-5,5-disulfonic acid [bis-ANS]
- fluorophore binding to native GRP94 [1]: bi-phasic
- saturability of bis-ANS binding ([1]; heat shocked GRP94): binds in a saturable manner to heat shocked GRP94
- near maximal bis-ANS binding, molar excess of GRP94 monomer over bis-ANS ([1]; heat shocked GRP94, fixed bis-ANS 50 nM): 20 -fold molar excess
- bis-ANS binding to native GRP94 following extended incubations ([1]; native GRP94, extended incubation (20 hours)): a level of fluorophore binding similar to that seen with heat shocked GRP94 was observed
- Kd ([1]; read-out: half maximal binding of bis-ANS to heat shocked GRP94, fixed bis-ANS 50 nM, increasing heat shocked GRP94, emission 475 nm): 110 nM
- stimulation of GRP94 peptide binding activity over native protein [5]: four to five-fold
- site of bis-ANS binding to GRP94 [6]: residues 271–281 of the N-terminal domain of GRP94
- GRP94 quaternary structure (oligomerization) [7]: induces changes in the quaternary structure of GRP94 that mimic those seen upon heat shock
- trypsin proteolysis pattern of HSP90 (conformation) [8]: Essentially identical proteolysis patterns were observed following either heat shock or bis-ANS treatment of HSP90
- trypsin proteolysis pattern of GRP94 (conformation) [9]: substantially reduced recovery of the prominent proteolysis products
- citrate synthase thermal aggregation in presence of compound-treated GRP94 [10]: no thermal aggregation of citrate synthase was detectable
- GRP94 secondary structure (CD spectra) [11]: does not alter GRP94 secondary structure

Compound: Nc1ccn([C@@H]2O[C@H](COP(=O)(O)OP(=O)(O)OP(=O)(O)O)[C@@H](O)[C@H]2O)c(=O)n1 [CTP]
- nucleoside base specificity: binding by [3H]-NECA competitive displacement [2]: little to no binding

Compound: C[C@@H]1C[C@H]2O[C@@H]2/C=C\C=C\C(=O)Cc2c(Cl)c(O)cc(O)c2C(=O)O1 [radicicol]
- binding stoichiometry of radicicol to Hsp90 ([12]; Roe et al. (1999)): 2 mol radicicol/mol Hsp90 dimer
- effect on casein kinase II activity [3]: neither NECA nor radicicol, both of which bind to the N-terminal nucleotide binding domain of GRP94, significantly inhibit GRP94 derived or casein kinase II activity

Compound: Nc1ncnc2c1ncn2[C@@H]1O[C@H](COP(=O)(O)O)[C@@H](O)[C@H]1O [AMP]
- competition with [3H]-NECA for binding to GRP94 (adenosine ligands) [2]: effectively competed
- effect of excess Mg2+ on binding to GRP94 [2]: markedly stimulated

Compound: Nc1ncnc2c1ncn2[C@@H]1O[C@H](COP(=O)(O)OP(=O)(O)O)[C@@H](O)[C@H]1O [ADP]
- competition with [3H]-NECA for binding to GRP94 (adenosine ligands) [2]: effectively competed
- effect of excess Mg2+ on binding to GRP94 [2]: markedly stimulated
- extent of competition of NECA binding to GRP94 ([2]; FIGS. 10A–10C): wholly competed
- relative affinities for GRP94 in presence of Mg2+ ([2]; excess Mg2+): nearly identical relative affinities
- affinity of N-terminal domain of Hsp90 for ADP relative to ATP ([12]; Prodromou et al. (1997)): four-fold higher affinity than that observed for ATP
- change of GRP94 tryptophan fluorescence [13]: the tryptophan fluorescence was decreased

Compound: O=c1ccn([C@@H]2O[C@H](COP(=O)(O)OP(=O)(O)OP(=O)(O)O)[C@@H](O)[C@H]2O)c(=O)[nH]1 [UTP]
- nucleoside base specificity: binding by [3H]-NECA competitive displacement [2]: little to no binding

Compound: Nc1ncnc2c1ncn2[C@@H]1O[C@H](CO)[C@@H](O)[C@H]1O [adenosine]
- competition with [3H]-NECA for binding to GRP94 (adenosine ligands) [2]: relative displacement activity approximating that observed for ADP
- effect of excess Mg2+ on binding to GRP94 [2]: without effect

Compound: heparin
- effect on casein kinase II activity [3]: markedly attenuated
- effect on GRP94 autophosphorylation activity [4]: markedly attenuated

Compound: CCC(=O)c1ccc2cc(N(C)C)ccc2c1 [Prodan, 6-propionyl-2-(dimethylamino)naphthalene]
- fluorophore binding to heat shocked GRP94 [1]: does not interact with the hydrophobic binding pocket(s) displayed by heat shocked GRP94

Compound: Nc1ncnc2c1ncn2[C@H]1C[C@H](O)[C@@H](COP(=O)(O)OP(=O)(O)OP(=O)(O)O)O1 [deoxyATP]
- nucleoside base specificity: binding by [3H]-NECA competitive displacement [2]: could bind
